Data published in the supplement of paper PMC11208160.

Test: recombinant barcode read abundance after kanamycin selection (control-corrected) (log10(CPM+1)); higher = more efficient recombination; sequences stand for … in AGTGCAGAGAAAATCGGCCAGTTTTCTCTGCCTGCAGTCCGCATGCCGT…AGATTTATGCAGCGGACTGCCTTTCTCCCAAAGTGATAAACCGGACAGTATCATGGACCGGTTTTCCCGGTAATCCGTATTTGCAAGGTTGGTTTCACT; site = the 11-nt target
Procedure: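 Pooled E. coli target-specificity screen for the IS621 bridge recombinase. Each library plasmid pairs an 11-nt target (CT core) with a bridge RNA whose target-binding loop (9-nt LTG + 4-nt RTG) is reprogrammed; the rest of the 177-nt WT IS621 bridge RNA scaffold is fixed. The plasmid is co-electroporated with a WT donor plasmid; recombinase is induced with 0.1 mM IPTG and recombinants are selected on kanamycin. Recombinant barcodes are sequenced, converted to CPM, averaged over two biological replicates and corrected by the unselected control CPM. Molecule = full bridge RNA written as DNA: LTG = specificity nt 1-9, RTG = reverse complement of specificity nt 8-11, in the WT scaffold.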
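Note: IS621 recombinase and bridge RNA in Escherichia coli cells.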

Sequence | recombinant barcode read abundance (log10)
AACCCACCTTGGGTTCTAACCTGTTGCCT (site AACCCACCTAG) | 1.97
AACCCACCTTGGGTTCTAACCTGTTGCCT (site CACCCACCTAG) | 0.56
AACCCACCTTGGGTTCTAACCTGTTGCCT (site GACCCACCTAG) | 0.0506
AACCCACCTTGGGTTCTAACCTGTTGCCT (site TACCCACCTAG) | 0.997
AACGCCACTTGGGTTCTAACCTGTTGCCT (site AACGCCACTAG) | 0.0293
AACGCCACTTGGGTTCTAACCTGTTGCCT (site GACGCCACTAG) | 0.0328
AACGGAGCTTGGGTTCTAACCTGTTGCGG (site AACGGAGCTCC) | 1.78
AACGGAGCTTGGGTTCTAACCTGTTGCGG (site TGCGGAGCTCC) | 0.699
AACGTACCTTGGGTTCTAACCTGTTGCAG (site AACGTACCTCT) | 1.28
AACGTACCTTGGGTTCTAACCTGTTGCAG (site GTGAAGACTAA) | 0.0773
AACTAATCTTGGGTTCTAACCTGTTGCCT (site AACTAATCTAG) | 0.327
AACTAATCTTGGGTTCTAACCTGTTGCCT (site AACTCATCTAG) | 0.0864
AACTAATCTTGGGTTCTAACCTGTTGCCT (site AACTGATCTAG) | 0.0845
AACTAATCTTGGGTTCTAACCTGTTGCCT (site AACTTATCTAG) | 0.0117
AACTAGTCTTGGGTTCTAACCTGTTGCTA (site AACCAGTCTTC) | 0.0577
AACTAGTCTTGGGTTCTAACCTGTTGCTA (site AACTAGTCTTA) | 1.27
AACTATTCTTGGGTTCTAACCTGTTGCCT (site AACTATTCTAG) | 0.374
AACTATTCTTGGGTTCTAACCTGTTGCCT (site ATGTATTCTAG) | 0.114

Sequence | recombinant barcode read abundance (log10)
AACTCATCTTGGGTTCTAACCTGTTGCCT (site AACTAATCTAG) | 0.0366
AACTCATCTTGGGTTCTAACCTGTTGCCT (site AACTCATCTAG) | 0.378
AACTCATCTTGGGTTCTAACCTGTTGCCT (site AACTGATCTAG) | 0.149
AACTCATCTTGGGTTCTAACCTGTTGCCT (site AACTTATCTAG) | 0.0223
AACTTATCTTGGGTTCTAACCTGTTGCCT (site AACTAATCTAG) | 1.02
AACTTATCTTGGGTTCTAACCTGTTGCCT (site AACTCATCTAG) | 0.0843
AACTTATCTTGGGTTCTAACCTGTTGCCT (site AACTGATCTAG) | 0.0896
AACTTATCTTGGGTTCTAACCTGTTGCCT (site AACTTATCTAG) | 0.812
AACTTCACTTGGGTTCTAACCTGTTGCCT (site AACTTCACTAG) | 1.12
AACTTCACTTGGGTTCTAACCTGTTGCCT (site AACTTCCCTAG) | 0.013
AACTTCACTTGGGTTCTAACCTGTTGCCT (site AACTTCGCTAG) | 0.364
AACTTCACTTGGGTTCTAACCTGTTGCCT (site AACTTCTCTAG) | 0.0193
AACTTTCCTTGGGTTCTAACCTGTTGCAT (site AACTATCCTAT) | 0.0732
AACTTTCCTTGGGTTCTAACCTGTTGCAT (site AACTCTCCTAT) | 0.465
AACTTTCCTTGGGTTCTAACCTGTTGCAT (site AACTGTCCTAT) | 0.0344
AACTTTCCTTGGGTTCTAACCTGTTGCAT (site AACTTTCCTAT) | 0.259
AAGAAGCCTTGGGTTCTAACCTGTTGCCT (site AAGAAGCCTAG) | 2.01
AAGAAGCCTTGGGTTCTAACCTGTTGCCT (site CAGAAGCCTAG) | 0.717
